Entries after “also recorded” stand apart in the source; their conditions may differ.
Key:
COX-2-10aa-mPGES-1 = molecular target: T1, COX-2-10aa-mPGES-1 (Homo sapiens, UniProt O14684+P35354); assay: Enzymelink COX-2-10aa-mPGES-1 high through-put screening; type: biochemical; conditions: cross-filtered between mPGES-1, PGIS and COX-2 with AA as substrate
T1 construct: made in house
T1 sequence (P35354+O14684 with tags, fused parts or gaps): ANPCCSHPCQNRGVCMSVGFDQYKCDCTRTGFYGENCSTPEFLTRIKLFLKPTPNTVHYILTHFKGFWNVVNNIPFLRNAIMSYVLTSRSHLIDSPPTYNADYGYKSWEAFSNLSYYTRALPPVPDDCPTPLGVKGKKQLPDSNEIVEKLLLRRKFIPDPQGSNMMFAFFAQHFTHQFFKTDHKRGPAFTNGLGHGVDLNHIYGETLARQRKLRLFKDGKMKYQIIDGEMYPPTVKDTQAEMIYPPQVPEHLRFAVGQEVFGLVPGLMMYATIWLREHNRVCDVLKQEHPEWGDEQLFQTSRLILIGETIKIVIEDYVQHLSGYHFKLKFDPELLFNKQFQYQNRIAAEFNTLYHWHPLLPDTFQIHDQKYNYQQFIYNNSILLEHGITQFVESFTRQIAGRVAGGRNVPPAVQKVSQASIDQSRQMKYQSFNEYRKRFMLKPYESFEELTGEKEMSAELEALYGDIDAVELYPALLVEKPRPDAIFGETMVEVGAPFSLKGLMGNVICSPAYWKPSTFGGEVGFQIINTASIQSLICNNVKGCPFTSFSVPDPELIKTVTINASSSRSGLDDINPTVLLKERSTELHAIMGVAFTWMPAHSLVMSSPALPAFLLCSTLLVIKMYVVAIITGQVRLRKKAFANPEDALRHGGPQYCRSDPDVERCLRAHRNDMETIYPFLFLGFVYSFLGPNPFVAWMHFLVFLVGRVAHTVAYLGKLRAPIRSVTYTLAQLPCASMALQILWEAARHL
Description: There is an urgent need for new anti-inflammatory drugs with less the adverse effects in clinical practice. Developing drugs which inhibit mPGES-1 without affecting other COX downstream synthases to only decrease PGE2 level at inflammation site is an ideal therapeutic strategy to treat inflammatory diseases. By successfully establishing a system of single-chain Enzymelinks of the upstream COX-2 and the downstream mPGES-1 thread by a 10 amino acid (AA) bio-linker (COX-2-10aa-mPGES-1 [9,11]), one can mimic endogenous inflammatory PGE2 biosynthesis without affecting COX-2 coupling to other enzyme synthases, for example, PGIS. This kind of Enzymelink has a kinetic advantage for converting the initial substrate, AA, to pro-inflammatory PGE2 via a triple catalytic reaction due to the shorter distance between the catalytic domain of the two enzymes within a single polypeptide chain. By this method, it was possible to reduce the interference with the mPGES-1 inhibitor screen, such as the nonspecific inhibition and cross-inhibition of PGIS, by avoiding the use of the unstable intermediate PGH2 as the initial substrate for PGE2 biosynthesis. At the same time, another Enzymelink, COX-2-10aa-PGIS was established in order to verify that the screen compound will not affect PGI2 synthesis. […]

[1] = test system: carrageenan-induced paw inflammation; assay: Carrageenan-induced paw inflammation/edema in BABL-c mice; type: in vivo; conditions: for inflammatory edema (paw volume quantitation): 50 mg/kg intramuscular 10 min before carrageenan, vs saline control; for inflammatory edema (paw volume quantitation) / time course of paw volume: 50 mg/kg; for paw thickness: 50 mg/kg intramuscular, vs control group; for time course of paw volume: 0-6 h after carrageenan
Protocol: (§1) Animals. The adult CD-1 mice (18-20 g) and BABL-c (18-20 g) were purchase from Envigo Plus vendor (USA) and used in this study. The mice were hosted under standard condition (23±2° C.; 12 h/12 h light/dark cycle; 50% humidity). The protocol was approved by Institutional Animal Care and Use Committee (IACUC). And all procedures were conducted according to IACUC. After all the experiments, the animals were euthanized with CO2 under the procedure of IACUC. Injections of compounds. The synthesized compounds to be tested were injected 10 mins before carrageenan injection. All the compounds were freshly prepared. All the compounds were dissolved in PBS and totally dissolved after ultrasonic. The compounds were injected with 26-G sterile needle via intramuscular injection. After immobilizing the mice, the hind limb was immobilized with the little finger and the then, the injection site was disinfected with 70% alcohol, and the needle was inserted into the root of the hindlimb at an angle of 45 degrees. The needle plug was withdrawn to make sure there was no injection into the blood vessel. If there was no blood return, the compounds were injected slowly. The mice were place back to their cages for 10 mins before the next step. Procedures for establishing of paw inflammation. The procedure of establishing inflammation mice model and the procedure of measurement of paw edema were describe as follow: 1% lambda-carrageenan was freshly prepared before injection. Carrageenan powder was first dissolved in cold PBS and vortexed for 5 times. Then the mixture was placed in 50° C. water for 5 mins until all the milky white matrix dissolved completely. […]*3⁄8 (0.45 mm*10 mm) sterile needle was used for injection. Carrageenan was subcutaneous injected slowly into the middle of the mice left hind paw. The time of injection Carrageenan was count as the start time point (0 h) and the paw swelling size was recorded as paw thickness and paw edema volume. Establishing of Carrageenan-induced Inflammatory Paw Edema Mice Model. […] The carrageenan-induced paw edema inflammation is a well-defined model of acute inflammation. It is widely and commonly used for evaluating the effectiveness of inhibitors of prostaglandin synthesis. Carrageenan is a complex of polysaccharides that functions in stimulating the expressions of COX-2 and mPGES-1 to release the proinflammatory mediator, PGE2, and its downstream factors, such as bradykinin, histamine, tachykinins, reactive oxygen, and nitrogen species. In this study, to induce acute inflammation, a single dose of 25 μl of 1% solution of λ-carrageenan was injected subcutaneously into the pad area of the hairless skin on the underside of the left hind paw (FIG. 1A). The injection was performed using a 26-gauge needle targeting the center of the plantar region. The administration of leading compounds and the positive control group, Celebrex, and the negative control saline occurred 10 minutes prior to the λ-carrageenan […] injection. To obtain the anti-inflammatory data, the animal condition was monitored hourly and paw-edema volume and thickness were measured hourly from 0 h to 6 h and again at 24 h, the injection of λ-carrageenan was counted as 0 h (FIG. 1B). After 24 h, local blood was collected from the hind paw of the mice for the next step assay to determine the PGE2 and PGI2 levels. Tissue samples, including the stomach and kidney, were collected after euthanization. The BABL-c mice were arranged into three groups: A. Control (Ctl) group: 50 μl saline; B. 2Me group: 50 mg/kg, 50 ul; C. 3-F group: 50 mg/kg, 50 ul. the CD-1 mice were arranged into 6 groups: A. Control (Ctl) group: saline 50 ul; B. 2-Me group: 50 mg/kg, 50 ul; C. 3-F group: 50 mg/kg, 50 ul; D: 2-Me group: 10 mg/kg, 50 ul; E. 3-F group: 10 mg/kg, 50 ul; F. Celebrex group: 50 mg/kg, 50 ul. Establishing measurements of the carrageenan-induced acute inflammation/edema. […]

[2] = test system: carrageenan-induced paw inflammation; assay: Carrageenan-induced paw inflammation/edema in CD-1 mice; type: in vivo; conditions: for dose-dependent anti-inflammatory activity, paw thickness: 10 mg/kg vs 50 mg/kg; for dose-dependent anti-inflammatory activity, paw edema volume: 10 mg/kg vs 50 mg/kg, 2, 4 and 6 h; for paw thickness increase / paw volume increase: 50 mg/kg intramuscular, vs control group; for paw volume increase: 50 mg/kg
Protocol: as §1

selectivity for mPGES-1 (COX-2-10aa-mPGES-1)	Compound	inflammatory edema (paw volume quantitation) [1]	paw thickness [1]	time course of paw volume [1]	dose-dependent anti-inflammatory activity, paw thickness [2]	dose-dependent anti-inflammatory activity, paw edema volume [2]	paw thickness increase [2]	paw volume increase [2]
highly selective for mPGES-1	CC(C)c1ccc(-c2nc3cc(N)ccc3o2)cc1 [2-Me]	significantly decreased the inflammatory edema; also recorded: significant effects on reducing the paw edema	significant anti-inflammatory potency	increased slightly in the first 4 hours and decreases in the following 2 hours	improve the anti-inflammatory effects	improved its anti-inflammation activity	significantly decrease	significantly decrease; also recorded: significant effects on reducing the paw edema
highly selective for mPGES-1	Nc1ccc2oc(-c3ccc(C(F)(F)F)cc3)nc2c1 [3-F]	significantly decreased the inflammatory edema; also recorded: significant effects on reducing the paw edema	significant anti-inflammatory potency	increased during the first 2 hours but decreased within the next 4 hours	improve the anti-inflammatory effects	increasing potent anti-inflammatory effect corresponding with the dosage increase	significantly decrease	significantly decrease; also recorded: significant effects on reducing the paw edema

— patent US20230233531A1, “USE OF NON-STEROIDAL ANTI-INFLAMMATORY COMPOUNDS FOR TREATMENT OF INFLAMMATION” (University of Houston System, priority 2022, published 2023)
